Like-named read-outs stand apart in the source and are kept apart here.
How the values were obtained:
[1] = target: SARS-CoV-2 NSP3 macrodomain (Mac1) (Severe acute respiratory syndrome coronavirus 2, UniProt P0DTD1); assay: biochemical; format: binding; conditions: for Ligand efficiency (binding enery per heavy atom): from SARS CoV-2 macrodomain HTRF assay
[2] = target: SARS-CoV-2 NSP3 macrodomain (Mac1), P43 crystal form (Severe acute respiratory syndrome coronavirus 2, UniProt P0DTD1); format: binding; conditions: for Number of isomers bound: ligand modeling in Mac1 crystal structure; for Isomers modeled: stereoisomer(s) modeled in Mac1 crystal structure
[3] = dose-response, read-out: SARS CoV-2 macrodomain HTRF assay: IC50
[4] = dose-response, read-out: SARS CoV-2 macrodomain HTRF assay: Ki
[5] = preliminary screen, compound at 200 μM, mean of 3-4 technical replicates, read-out: % competition in HTRF assay

| SMILES | IC50 [1, 3] | Ki [1, 4] | Ligand efficiency (binding enery per heavy atom) [1] | Number of isomers bound [2] | Isomers modeled [2] | fold less potent compared to the AVI-3761 parent ([1]; HTRF IC50) | IC50 ([1]; read-out: HTRF IC50) | inhibition at 200 µM ([1]; Single dose, concentration 200 μM, read-out: Average % competition) | inhibition at 200 µM [1, 5] | inhibition at 200 µM ([1]; Single dose, concentration 200 μM, read-out: SARS CoV-2 macrodomain HTRF assay: Average % competition) | IC50 ([1]; SARS CoV-2 macrodomain HTRF assay, dose-response, read-out: IC50) | Ki ([1]; SARS CoV-2 macrodomain HTRF assay, dose-response, read-out: Ki) |
| --- | --- | --- | --- | --- | --- | --- | --- | --- | --- | --- | --- | --- |
| CC1CCCC(O)(CNc2ncnc3[nH]ccc23)C1 (centres unmarked) [AVI-4307] | 40 µM | 37 µM | 0.32 | 1 |  |  |  |  |  |  |  |  |
| OC1(CNc2ncnc3[nH]ccc23)CCC(F)(F)CC1 [AVI-4308] | 140 µM | 130 µM | 0.27 | 1 | achiral |  |  |  |  |  |  |  |
| OC1(CNc2ncnc3[nH]ccc23)CCCC(C(F)(F)F)C1 (centres unmarked) [AVI-4309] | 150 µM | 140 µM | 0.24 | 1 |  |  |  |  |  |  |  |  |
| OC1(CNc2ncnc3[nH]ccc23)CCCOC1 (centres unmarked) [AVI-4311] | 170 µM | 160 µM | 0.29 | 1 |  |  |  |  |  |  |  |  |
| CC1CCC(O)(CNc2ncnc3[nH]ccc23)CC1 (centres unmarked) [AVI-4312] | 21 µM | 20 µM | 0.34 | 1 | rr |  |  |  |  |  |  |  |
| OC1(CNc2ncnc3[nH]ccc23)COC2CC1C2 (centres unmarked) [AVI-4313] | 130 µM | 120 µM | 0.29 | 1 |  |  |  |  |  |  |  |  |
| OC1(CNc2ncnc3[nH]ccc23)CCOCC1 [AVI-4314] | 230 µM | 210 µM | 0.28 | 1 | achiral |  |  |  |  |  |  |  |
| O=S1(=O)CCCC(O)(CNc2ncnc3[nH]ccc23)C1 (centres unmarked) [AVI-4317] |  | 100 µM | 0.28 | 1 |  | ~ 4 fold | 110 µM |  |  |  |  |  |
| CN(CC1(O)CCOCC1)c1ncnc2[nH]ccc12 [AVI-4318] | 71 µM | 66 µM | 0.30 | 1 | achiral |  |  |  |  |  |  |  |
| OC1(CNc2ncnc3[nH]ccc23)CCSCC1 [AVI-4319] | 170 µM | 160 µM | 0.29 | 1 | achiral |  |  |  |  |  |  |  |
| OC1(CNc2ncnc3[nH]ccc23)CC2CCC1CC2 (centres unmarked) [AVI-4320] | 83 µM | 77 µM | 0.28 | 1 |  |  |  |  |  |  |  |  |
| OC1(CNc2ncnc3[nH]ccc23)CCCSC1 (centres unmarked) [AVI-4322] | 53 µM | 49 µM | 0.33 | 1 |  |  |  |  |  |  |  |  |
| Cc1c[nH]c2ncnc(NCC3(O)CCC(C)CC3)c12 (centres unmarked) [AVI-4331] | 210 µM |  | 0.26 | 1 | rr |  |  |  |  |  |  |  |
| CC(O)C(C)Nc1ncnc2[nH]ccc12 (centres unmarked) [AVI-5158] |  |  |  | 2 | RS,RR |  |  | 32% | 32% |  |  |  |
| CC(C)C1CCCN1c1ncnc2[nH]ccc12 (centres unmarked) [AVI-5216] |  |  |  | 1 |  |  |  |  | 35% | 35% |  |  |
| CC(C)(CO)Nc1ncnc2[nH]ccc12 [AVI-5266] |  |  |  | 1 | achiral |  | 110 µM |  |  |  | 32 µM | 30 µM |
| CC1(C)CCN(c2ncnc3[nH]ccc23)C(CO)C1 (centres unmarked) [AVI-5994] | 68 µM | 63 µM | 0.31 | 1 | S,S |  |  |  |  |  |  |  |
| O[C@H]1CC[C@H]2CCN(c3ncnc4[nH]ccc34)[C@H]21 [AVI-5997] | 37 µM | 34 µM | 0.34 | 1 | SSR |  |  |  |  |  |  |  |
| OCC1C=CCCN1c1ncnc2[nH]ccc12 (centres unmarked) [AVI-5998] | 160 µM | 150 µM | 0.31 | 1 |  |  |  |  |  |  |  |  |
| OCC1CC=CCN1c1ncnc2[nH]ccc12 (centres unmarked) [AVI-6002] | 52 µM | 48 µM | 0.35 | 1 |  |  |  |  |  |  |  |  |
| OC1(CNc2ncnc3[nH]ccc23)CCCCC1 [AVI-6217] | 42 µM | 39 µM | 0.34 | 1 | achiral |  |  |  |  |  |  |  |
| OC1CCC(O)(CNc2ncnc3[nH]ccc23)CC1 (centres unmarked) [AVI-6220] | 260 µM | 240 µM | 0.26 | 1 | rr,rr |  |  |  |  |  |  |  |

From article doi:10.1101/2024.08.25.609621 (bioRxiv, 2024)
